Assay results taken from US20240252499A1, “Treatment of uremic pruritus” (CymaBay Therapeutics, Inc., priority 2023, published 2024).
Where two headings read alike, the source gives them in different places.

What was measured:
[1] = Example 5: topical seladelpar in uremic pruritus; format: in vivo, human; conditions: topical ointment 1, 2, 5 or 10%; end-stage renal disease on hemodialysis
Procedure: Subjects are permitted their usual other medications. […] At each visit, the subjects are assessed for their disease symptoms and biomarkers, and assessed for pruritus. The subjects also maintain health diaries, which are reviewed at each visit.

[2] = test system: IL-31; assay: ENHANCE phase 3 study in PBC (NCT03602560): serum IL-31; format: in vivo, human; conditions: 12 weeks, p<0.001
Source text: The trial subjects in this phase 3 study were adult, male or female, with a diagnosis of PBC. Exclusion criteria included AST or ALT≥3×ULN, total bilirubin (TBIL)≥2×ULN, autoimmune hepatitis or a history of chronic viral hepatitis, PSC, the current use of fibrates or simvastatin, the use of colchicine, methotrexate, azathioprine, or systemic steroids in the previous two months, the use of an experimental treatment for PBC, and the use of an experimental or unapproved immunosuppressant. […] Serum IL-31 and its correlation with patient-reported pruritus numerical rating scale (NRS, 0-10) were assessed. Baseline IL-31 levels positively correlated with pruritus NRS; r=0.54, p<0.0001). […] IL-31 compared to subjects with pruritus NRS<4 (7.6 pg/mL [1.2, 14.5] vs 1.2 pg/mL [0.3, 2.8], p<0.0001). At baseline, IL-31 was also correlated with serum total bile acids (r=0.54, p<0.0001) and alkaline phosphatase (ALP) (r=0.44, p<0.0001).

[3] = Studies of oral seladelpar in PBC; format: in vivo, human
[4] = test system: IL-31 production by CD4 T cells; assay: IL-31 production by CD4 T cells under Th2-promoting conditions; format: cell-based, human; conditions: for IL-31 concentration in culture medium, mean: 10 μM seladelpar
Procedure: CD4 T cells were enriched from peripheral blood mononuclear cells collected from two normal healthy donors, using the EasySep™ Human CD4+ T Cell Isolation Kit ([…] Technologies). 100,000 CD4 T cells were seeded in a U-bottom 96-well-plate well, and cultured in Th2-promoting conditions promoted by IL-4 or IL-33. […] On day 5 of culture, the anti-CD3/CD28 beads were diluted by adding 150 μL TCM. From days 5 to 13, the cells were cultured in the presence of the same reagents as for days 1 to 4 plus 50 ng/ml IL-2; and the cell culture medium was renewed every 2-3 days by a change of 50% volume of the medium. On day 13 or day 14, the expanded T cells in an individual well were split to four to six wells of 96-well-plate wells; and 5 ng/mL phorbol myristate acetate and 500 ng/mL ionomycin were added for 3 days to re-activate the T cells. The IL-31 concentration in the culture medium of each well was determined using the V-PLEX Human IL-31 Kit (Meso Scale Diagnostics, LLC; Rockville, MD, USA).

[5] = Example 4: oral seladelpar in uremic pruritus; format: in vivo, human; conditions: oral 5, 10, 25 and 50 mg/day; end-stage renal disease on hemodialysis
Procedure: Subjects are permitted their usual other medications. […] At each visit, the subjects are assessed for their disease symptoms and biomarkers, and assessed for uremic pruritus. The subjects also maintain health diaries, which are reviewed at each visit.

[6] = test system: human IL-31; assay: Serum human IL-31 in PXB mice (humanized liver) after 19 days of dosing; format: in vivo, PXB mouse; conditions: gavage once/day for 19 days, 2 h after last dose; day 0 0.13 pg/mL
Source text: The PXB mouse (PhoenixBio Co., Ltd., Higashi-Hiroshima, Japan) is a chimeric mouse with a humanized liver, produced by transplanting human hepatocytes into the albumin enhancer/promoter-urokinase-type plasminogen activator complementary DNA transgenic/SCID mouse. The mouse has its liver repopulated by human hepatocytes at a ratio of more than 70%, typically 85-90%, as assessed by measuring the ratio of human albumin to mouse albumin in the blood. The transplanted human hepatocytes express a variety of human messenger RNA (mRNA) and proteins, in a similar manner to those of the normal human liver. […] The study was conducted at PhoenixBio. Male PXB mice aged about 25 weeks, kept in single animal cages and fed CRF1 mouse chow supplemented with AS primate chow for vitamin C supplementation (both from Oriental Yeast Co., Ltd., Tokyo, Japan), were randomized into groups (10/group) based on mean values for body weight and blood human albumin concentration. […] Two hours after the last dose, each mouse was anesthetized with isoflurane, at least 400 μL blood was collected by cardiac puncture, and the mouse sacrificed by exsanguination. The blood samples were left to coagulate at room temperature for at least 5 minutes, then centrifuged at 13200×g for 3 minutes at 4 °C to obtain serum, which was analyzed for human IL-31.

[7] = target: T1, peroxisome proliferator-activated receptor-α (Homo sapiens, UniProt Q07869); assay: Specificity of seladelpar for PPARδ compared with PPARα; format: biochemical; conditions: PPARδ vs PPARα
T1 sequence (Q07869 1-468): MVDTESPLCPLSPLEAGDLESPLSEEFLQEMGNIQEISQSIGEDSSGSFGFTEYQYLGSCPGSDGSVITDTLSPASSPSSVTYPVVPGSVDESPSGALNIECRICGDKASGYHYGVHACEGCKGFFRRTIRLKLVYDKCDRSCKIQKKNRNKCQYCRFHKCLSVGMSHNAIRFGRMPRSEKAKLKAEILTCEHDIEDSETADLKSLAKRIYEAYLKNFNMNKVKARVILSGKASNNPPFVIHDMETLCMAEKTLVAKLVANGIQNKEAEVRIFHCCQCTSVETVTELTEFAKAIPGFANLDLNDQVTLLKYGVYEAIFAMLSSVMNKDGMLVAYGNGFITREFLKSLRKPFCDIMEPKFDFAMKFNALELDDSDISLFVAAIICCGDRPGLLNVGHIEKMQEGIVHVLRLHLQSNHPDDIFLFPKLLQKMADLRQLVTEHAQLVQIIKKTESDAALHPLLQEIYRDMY
Source text: It is specific (>600-fold and >2500-fold compared with peroxisome proliferator-activated receptor-α and peroxisome proliferator-activated receptor-γ receptors). PPARδ activation stimulates fatty acid oxidation and utilization, improves plasma lipid and lipoprotein metabolism, glucose utilization, and mitochondrial respiration, and preserves stem cell homeostasis.

[8] = test system: IL-31; conditions: humanized liver murine model; cited from earlier work
[9] = 12-month trial, PBC patients, cited from earlier work
[10] = test system: IL-31; conditions: NASH patients; cited from earlier work
[11] = target: T2, PPARy (Homo sapiens, UniProt P37231); conditions: read-out: ECso for PPARy; cited from earlier work
T2 sequence (P37231 1-505): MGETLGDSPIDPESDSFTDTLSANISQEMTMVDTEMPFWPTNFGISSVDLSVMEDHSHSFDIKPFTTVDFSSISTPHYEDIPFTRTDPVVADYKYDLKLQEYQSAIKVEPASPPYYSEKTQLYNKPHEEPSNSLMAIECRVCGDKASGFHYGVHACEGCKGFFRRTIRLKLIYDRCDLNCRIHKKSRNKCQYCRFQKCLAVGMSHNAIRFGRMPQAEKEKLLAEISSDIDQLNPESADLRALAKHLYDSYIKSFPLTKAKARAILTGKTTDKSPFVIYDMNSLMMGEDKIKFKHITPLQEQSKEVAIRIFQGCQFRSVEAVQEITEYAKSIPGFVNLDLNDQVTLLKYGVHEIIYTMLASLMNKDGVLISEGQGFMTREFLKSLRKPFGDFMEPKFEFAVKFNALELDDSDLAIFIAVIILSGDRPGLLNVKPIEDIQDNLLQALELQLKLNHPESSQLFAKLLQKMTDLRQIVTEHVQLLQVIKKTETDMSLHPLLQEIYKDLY

[12] = Example 7: topical mavodelpar in uremic pruritus; format: in vivo, human; conditions: topical ointment 1, 2, 5 or 10%; end-stage renal disease on hemodialysis
Procedure: Adult subjects with end-stage renal disease on routine hemodialysis are treated topically with an ointment containing 1, 2, 5, or 10% of mavodelpar. Subjects are permitted their usual other medications. The subjects are assessed before the study, and at intervals during the study, such as every 4 weeks during the study and 4 weeks after the last dose of the mavodelpar therapy, for safety and pharmacodynamic evaluations. At each visit, the subjects are assessed for their disease symptoms and biomarkers, and assessed for pruritus. The subjects also maintain health diaries, which are reviewed at each visit.

[13] = target: T3, PPARa (Homo sapiens, UniProt Q07869); conditions: read-out: ECso for PPARa; cited from earlier work
T3 sequence (Q07869 1-468): T1 sequence (Q07869 1-468)

[14] = Example 6: oral mavodelpar in uremic pruritus; format: in vivo, human; conditions: oral 5, 10, 25, 50 and 100 mg/day; end-stage renal disease on hemodialysis
Procedure: Adult subjects with end-stage renal disease on routine hemodialysis are treated orally with doses of 5, 10, 25, 50, and 100 mg/day of mavodelpar. Subjects are permitted their usual other medications. The subjects are assessed before the study, and at intervals during the study, such as every 4 weeks during the study and 4 weeks after the last dose of the mavodelpar therapy, for safety and pharmacodynamic evaluations. At each visit, the subjects are assessed for their disease symptoms and biomarkers, and assessed for uremic pruritus. The subjects also maintain health diaries, which are reviewed at each visit.

CCO[C@H](COc1ccc(C(F)(F)F)cc1)CSc1ccc(OCC(=O)O)c(C)c1 [seladelpar, [4-({(2R)-2-ethoxy-3-[4-(trifluoromethyl)phenoxy]propyl}sulfanyl)-2-methylphenoxy]acetic acid]
uremic pruritus [1]: improvement in their uremic pruritus | mean IL-31 level at end of study ([2]; 5 mg/day oral, from 3.8 pg/mL at baseline): 1.7 pg/mL | mean IL-31 level at end of study ([2]; 10 mg/day oral, from 4.2 pg/mL at baseline): 1.7 pg/mL | efficacy in PBC ([3]; oral doses of 5, 10, 50 and 200 mg/day): effective in the treatment of PBC | effect on cholestatic pruritus (exacerbation) ([3]; oral doses of 5, 10, 50 and 200 mg/day in PBC): not to exacerbate cholestatic pruritus | efficacy in cholestatic pruritus associated with PBC ([3]; oral doses of 5 and 10 mg/day): effective in the treatment of cholestatic pruritus | effect on IL-31 ([3]; studies in PBC): reduce IL-31 | IL-31 concentration in culture medium, mean ([4]; Donor 1, IL-4 promoted): 36.00 pg/mL | IL-31 concentration in culture medium, mean ([4]; Donor 1, IL-33 promoted): 10.14 pg/mL | IL-31 concentration in culture medium, mean ([4]; Donor 2, IL-4 promoted): 27.28 pg/mL | IL-31 concentration in culture medium, mean ([4]; Donor 2, IL-33 promoted): 324.05 pg/mL | effect on IL-31 production by CD4 T cells ([4]; both donors, both promoters, p<0.0001 vs DMSO, Mann-Whitney): reduced IL-31 production | uremic pruritus [5]: improvement in their uremic pruritus | serum IL-31 concentration [6]: 0.19 pg/mL | specificity compared with peroxisome proliferator-activated receptor-α [7]: > 600 fold

CC[C@H]1[C@@H](O)[C@@H]2[C@H](CC[C@]3(C)[C@@H]([C@H](C)CCC(=O)O)CC[C@@H]23)[C@@]2(C)CC[C@@H](O)C[C@@H]12 [obeticholic acid]
serum IL-31 concentration [6]: 3.7 pg/mL | mRNA expression in human hepatocytes [8]: increased | patients with severe pruritus ([9]; OCALIVA 10 mg arm): 23% | patients with severe pruritus ([9]; OCALIVA titration arm): 19%

O=C(O)c1ccnc(N2CC(O)(c3ccc(OCc4c(-c5c(Cl)cccc5Cl)noc4C4CC4)cc3Cl)C2)c1 [cilofexor]
effect on IL-31 [10]: increased IL-31

Cc1cc(OC/C=C(/c2ccc(F)cc2)c2ccc(C#CCN3CCOCC3)cc2)ccc1OCC(=O)O [mavodelpar, (4-{[(2E)-3-(4-fluorophenyl)-3-{4-[3-(morpholin-4-yl)prop-1-yn-1-yl]phenyl}prop-2-en-1-yl]oxy}-2-methylphenoxy)acetic acid]
EC50 [11]: > 10 µM | uremic pruritus [12]: improvement in their uremic pruritus | EC50 [13]: > 10 µM | uremic pruritus [14]: improvement in their uremic pruritus
